Experimental data: paper PMC10813753 (Biology, 2024)
Structures can show the parent of a compound that is named as a salt. Where two headings read alike, the source gives them in different places.

Tests used:
[1] = system: F21T (DNA, G4) GGGTTAGGGTTAGGGTTAGGG; experiment: FRET melting (renaturing curve); settings: 10 mM K+, 90 mM Li+; 10 mM Li-cacodylate pH 7.3; 0.2 μM DNA; 10 μM compound
[2] = system: F10T (DNA, hairpin, Sp18 (hexaethylene glycol type spacer) between 10 and 11) TATAGCTATATAGCTATA; experiment: FRET melting (renaturing curve); settings: 100 mM LiCl; 10 mM Li-cacodylate; 0.2 μM DNA; 10 μM compound
[3] = system: Tel22 (DNA, G4) AGGGTTAGGGTTAGGGTTAGGG; experiment: equilibrium dialysis (non-competition); settings: 100 mM KCl; 10 mM potassium phosphate pH 7.2, 22 °C; 2 μM ligand, 75 μM tetrads; apparent; per tetrad; per base
[4] = system: Tel22 (DNA, G4) AGGGTTAGGGTTAGGGTTAGGG; experiment: circular dichroism titration; settings: 10 mM K+, 90 mM Li+; 10 mM Li-cacodylate pH 7.3, 25 °C; 4 μM DNA, DNA/ligand 1:1 to 1:5
[5] = system: ds17 (DNA, duplex) GGGTTACTACGAACTGG/CCAGTTCGTAGTAACCC; experiment: equilibrium dialysis (non-competition); settings: 100 mM KCl, 10 mM potassium phosphate pH 7.2, 22 °C, 2 μM ligand, 75 μM base pairs, apparent, per base pair
[6] = system: DU145 cells (prostate tumor); experiment: MTT viability assay DU145; format: cell-based, human
Protocol: (§1) A panel of five tumor cell lines and two normal cell lines was used to preliminarily test the cytotoxicity of compounds 1–4, and the experiments were conducted as previously reported. All human cell lines were acquired from American Type Culture Collection (ATCC): tumor PC-3 and DU145 (prostate), HeLa (cervix), MCF7 (breast) and HT29 (colorectal) and healthy HFF-1 (fibroblast) and RWPE-1 (prostate). The cell catalogue reference and culture media used in the experiments were CRL-1435^TM, RPMI (PC-3), HTB-81™, RPMI (DU145), CCL-2^TM, DMEM (HeLa), HTB-22^TM, DMEM (MCF-7), HTB-38^TM, modified McCoy’s 5a medium, Catalogue No. 30-2007 (HT29), SCRC-1041^TM, DMEM (HFF-1) and CRL-11609^TM, Keratinocyte-SFM (RWPE-1). Culture media were purchased from Merck: RPMI-1640, DMEM + 10% FBS (Fetal Bovine Serum) + […] (penicillin/streptomycin/amphotericin B). Media and supplements for RWPE-1 were from ThermoFisher (17005075, Madrid, Spain). MCF7 cells were additionally supplemented with insulin (0.001 mg/mL in 500 mL media). Cells were kept at 37 °C (5% CO2), and culture media were renewed three times per week. When the cells reached 80–100% confluence, they were trypsinized and centrifuged, and the concentration was adjusted to each experiment. Cells were seeded at a density of ~10,000 cells/well into 24-well plates. The cells were treated with ligands 1–4 or the cytotoxic agents PhenQE8, PhenDC3 or cisplatin at different concentrations (10 nM–100 μM). Compound solutions were freshly prepared using the appropriate culture medium. Triplicate experiments were run. For MTT viability assays, after 72 h incubation, 50 μL of MTT (5 mg/mL) was added, and an additional incubation of 4 h was allowed. The medium in each well was then replaced by DMSO, and the absorbance was measured at 570 nm using an ELISA plate reader. Absorbances were normalized using negative controls (untreated cells, in triplicate, with a maximum of 0.9% DMSO content). Dose–response curves were obtained by plotting the percentage of viable cells versus logarithmic compound concentration. IC50 values were determined using Kaleidagragh^TM (3.52) software by adjusting the data to Equation 1/(1 + 10^(m2*(log(m1) − x))); m1 = 0.000003; m2 = 1.

[7] = system: PC-3 cells (prostate tumor); experiment: MTT viability assay PC-3; format: cell-based, human; settings: MTT, 72 h
Protocol: as §1

HeLa cells (cervix) = experiment: MTT viability assay HeLa; format: cell-based, human; settings: 72 h
Protocol: as §1

[8] = system: RWPE-1 cells (healthy prostate); experiment: MTT viability assay RWPE-1; format: cell-based, human
Protocol: as §1

MCF-7 cells (breast) = experiment: MTT viability assay MCF-7; format: cell-based, human
Protocol: as §1

[9] = system: HFF-1 cells (healthy fibroblasts); experiment: MTT viability assay HFF-1; format: cell-based, human
Protocol: as §1

[10] = system: G4 Tel22 telomeric quadruplex DNA; parameters: method as in PMID 33451070; settings: previously reported ref 29; cited from earlier work
Calf thymus CT DNA = settings: cited from earlier work
HT29 cells (colorectal) = experiment: MTT viability assay HT29; format: cell-based, human
Protocol: as §1, with “Dose–response curves were obtained by plotting the percentage of viable cells versus logarithmic compound concentration.” left out

[11] = system: PC-3, DU145, HeLa, MCF-7, HT29, HFF-1 and RWPE-1 cells; experiment: MTT viability assay, whole cell panel; format: cell-based, human; settings: 72 h, up to 100 μM
Protocol: A panel of five tumor cell lines and two normal cell lines was used to preliminarily test the cytotoxicity of compounds 1–4, and the experiments were conducted as previously reported. All human cell lines were acquired from American Type Culture Collection (ATCC): tumor PC-3 and DU145 (prostate), HeLa (cervix), MCF7 (breast) and HT29 (colorectal) and healthy HFF-1 (fibroblast) and RWPE-1 (prostate). The cell catalogue reference and culture media used in the experiments were CRL-1435^TM, RPMI (PC-3), HTB-81™, RPMI (DU145), CCL-2^TM, DMEM (HeLa), HTB-22^TM, DMEM (MCF-7), HTB-38^TM, modified McCoy’s 5a medium, Catalogue No. 30-2007 (HT29), SCRC-1041^TM, DMEM (HFF-1) and CRL-11609^TM, Keratinocyte-SFM (RWPE-1). Culture media were purchased from Merck: RPMI-1640, DMEM + 10% FBS (Fetal Bovine Serum) + […] (penicillin/streptomycin/amphotericin B). Media and supplements for RWPE-1 were from ThermoFisher (17005075, Madrid, Spain). […] The medium in each well was then replaced by DMSO, and the absorbance was measured at 570 nm using an ELISA plate reader. Absorbances were normalized using negative controls (untreated cells, in triplicate, with a maximum of 0.9% DMSO content). […] IC50 values were determined using Kaleidagragh^TM (3.52) software by adjusting the data to Equation 1/(1 + 10^(m2*(log(m1) − x))); m1 = 0.000003; m2 = 1.

[12] = system: telomeric G4 sequence F21T; experiment: FRET-based DNA melting assay, telomeric G4 F21T; format: binding, human; settings: 10 μM compound, 0.2 μM F21T, renaturing process, K+ buffer
Protocol: FRET DNA melting assays were conducted following standard reported procedures. Briefly, the employed oligonucleotides F21T (5′-FAM—(GGG TTA)3GGG—TAMRA-3′) and F10T (5′-FAM—TAT AGC TA TA/Sp18/TA GCT ATA—TAMRA-3′) were dissolved in buffer at 0.25 μM concentration and annealed by heating at 90 °C for 5 min, and then immediately cooling to 0 °C, in the case of F21T, or slowly to rt (F10T) during a period of 3 hours. The solutions were allowed to stand at 4 °C at least overnight.
Tested compounds 1–4 were dissolved in water with up to a maximum 10% DMSO (50 μM stock solution). Each stock solution was then gradually diluted to reach the final concentrations in the assay from 0 to 10 μM and a fixed 0.2 μM concentration of target sequences F21T or F10T. The buffer used for G4 sequence F21T was 10 mM KCl, 90 mM LiCl and 10 mM Li-cacodylate, pH 7.3. The buffer employed for F10T was 100 mM LiCl and 10 mM Li-cacodylate.
The melting process program consisted of an incubation step at 24 °C for 5 min and then a temperature ramp (1 °C/min rate) with fluorescence recordings at every degree up to 95 °C. Subsequently, the microplate with the samples (50 μL) was incubated for 5 min at 96 °C and then gradually cooled by using a temperature ramp of −1 °C/min, with fluorescence measurements at every degree down to 25 °C. The melting and refolding (or renaturing) curves were registered based on the change in emission of the FAM (6-carboxyfluorescein) fluorophore, excited at 492 nm and emitting at 516 nm. Melting temperature values (Tm) were determined from replicate experiments using normalized curves and considering mid-transition T1/2 temperatures.

| ΔTm [1] | IC50 ([6]; Homo sapiens, DU-145, 72 h) | IC50 ([7]; Homo sapiens, PC-3, 72 h) | IC50 (HeLa cells (cervix); Homo sapiens, HeLa) | IC50 (MCF-7 cells (breast); Homo sapiens, MCF7, 72 h) | SMILES | IC50 ([8]; Homo sapiens, RWPE-1, 72 h) | IC50 ([9]; Homo sapiens, HFF-1, 72 h) | other results |
| --- | --- | --- | --- | --- | --- | --- | --- | --- |
|  |  |  |  |  | NC(=S)N/N=C/c1ccc2ccc3ccc(/C=N/NC(N)=S)nc3c2n1 (as salt: phosphate) [compound 2, 2,2′-(1,10-Phenanthroline-2,9-diyl)-bis(methylene)-bis(hydrazine-1-carbothioamide) Hexafluorophosphate Salt] |  |  | melting point: > 240 °C (dec.) |
| ~ 12 °C |  |  |  |  | NC(=S)N/N=C/c1ccc2ccc3ccc(/C=N/NC(N)=S)nc3c2n1 [1] |  |  | ΔTm [2]: ~ 0 °C; Kapp [3]: 1.1 ± 0.1 × 10^5 M^-1; binding [4]: yes; Kapp [5]: 0.06 ± 0.01 × 10^5 M^-1 |
| ~ 15 °C |  |  |  |  | NC(=S)N/N=C/c1ccc2ccc3ccc(/C=N/NC(N)=S)nc3c2n1 [2] |  |  |  |
| ~ 10 °C |  |  |  |  | NC(=S)N/N=C/c1ccc2ccc3ccc(/C=N/NC(N)=S)nc3c2n1 [3] |  |  |  |
|  | 7.3 ± 1 µM | 55.5 ± 3.1 µM | > 100 µM | 2.4 ± 0.8 µM | C[n+]1cc(NC(=O)c2ccc3ccc4ccc(C(=O)Nc5cc6ccccc6[n+](C)c5)nc4c3n2)cc2ccccc21 [PhenDC3] | 8.2 ± 1.1 µM | 32.2 ± 4.2 µM |  |
|  | 22.7 ± 1.1 µM | 5.6 ± 0.3 µM | 16.2 ± 1.6 µM | 44.9 ± 9.2 µM | N=C(N)N/N=C/c1ccc2ccc3ccc(/C=N/NC(=N)N)nc3c2n1 [PhenQE8] | 38.8 ± 0.5 µM | 170 ± 23.3 µM | binding selectivity quadruplex/dsDNA [10]: 90 fold; viscosity slope, (η/ηo)^1/3 versus r (Calf thymus CT DNA; determined in previous studies ref 29): ca. 0.24 |
|  |  |  |  |  | N.N.[Cl][Pt][Cl] [cisplatin] |  |  | IC50 ([6]; 72 h): 8.4 ± 1.5 µM; IC50 [7]: 12.8 ± 0.9 µM; IC50 (HeLa cells (cervix)): 18 ± 1.9 µM; IC50 ([8]; 72 h): 16.4 ± 1.4 µM; IC50 (MCF-7 cells (breast); 72 h): 96.5 ± 6.7 µM; IC50 (HT29 cells (colorectal); 72 h): 86.6 ± 7 µM; IC50 ([9]; 72 h): 36.6 ± 4.4 µM |
|  |  |  |  |  | CC[n+]1c(-c2ccccc2)c2cc(N)ccc2c2ccc(N)cc21 [ethidium bromide] |  |  | viscosity slope, (η/ηo)^1/3 versus r (Calf thymus CT DNA; classical monointercalating agent ref 50, 51): ~ 1.0 |

| SMILES | ΔTm [1] | IC50 ([6]; Homo sapiens, DU-145, 72 h) | IC50 ([7]; Homo sapiens, PC-3, 72 h) | IC50 (HeLa cells (cervix); Homo sapiens, HeLa) | IC50 (MCF-7 cells (breast); Homo sapiens, MCF7, 72 h) | IC50 ([8]; Homo sapiens, RWPE-1, 72 h) | IC50 ([9]; Homo sapiens, HFF-1, 72 h) | other results |
| --- | --- | --- | --- | --- | --- | --- | --- | --- |
| C(=N\Nc1nc(-c2ccccc2)cs1)/c1ccc2ccc3ccc(/C=N/Nc4nc(-c5ccccc5)cs4)nc3c2n1 [compound 4, 2,9-bis((E)-(2-(4-Phenylthiazol-2-yl)hydrazineylidene)methyl)-1,10-phenanthroline] | ~ 3 °C | > 100 µM | > 100 µM | > 100 µM | > 100 µM | > 100 µM | > 100 µM | ΔTm [2]: ~ 0 °C; cytotoxicity in all cell lines tested [11]: non-cytotoxic; ΔTm of telomeric G4 F21T [12]: ~ 3 °C; IC50 (HT29 cells (colorectal); Homo sapiens, HT-29, 72 h): > 100 µM; melting point: > 250 °C (dec.) |
